From ChEMBL document CHEMBL4052649, “Structure-activity relationships for flavone interactions with amyloid β reveal a novel anti-aggregatory and neuroprotective effect of 2',3',4'-trihydroxyflavone (2-D08)” (Bioorg Med Chem, 2017)
Calls of active or inactive are those of the source. The calls are words filed in the database; no cut-off is given here.

Experiments:
[1] = target: Amyloid-beta precursor protein (Homo sapiens) (UniProt P05067); test: Inhibition of human amyloid beta (1 to 42) fibrillisation in cell-free solution at 100 uM measured every 10 mins up to 48 hrs by Thioflavin T based fluorescence assay
Amyloid-beta precursor protein (Homo sapiens), sequence (P05067 whole entry): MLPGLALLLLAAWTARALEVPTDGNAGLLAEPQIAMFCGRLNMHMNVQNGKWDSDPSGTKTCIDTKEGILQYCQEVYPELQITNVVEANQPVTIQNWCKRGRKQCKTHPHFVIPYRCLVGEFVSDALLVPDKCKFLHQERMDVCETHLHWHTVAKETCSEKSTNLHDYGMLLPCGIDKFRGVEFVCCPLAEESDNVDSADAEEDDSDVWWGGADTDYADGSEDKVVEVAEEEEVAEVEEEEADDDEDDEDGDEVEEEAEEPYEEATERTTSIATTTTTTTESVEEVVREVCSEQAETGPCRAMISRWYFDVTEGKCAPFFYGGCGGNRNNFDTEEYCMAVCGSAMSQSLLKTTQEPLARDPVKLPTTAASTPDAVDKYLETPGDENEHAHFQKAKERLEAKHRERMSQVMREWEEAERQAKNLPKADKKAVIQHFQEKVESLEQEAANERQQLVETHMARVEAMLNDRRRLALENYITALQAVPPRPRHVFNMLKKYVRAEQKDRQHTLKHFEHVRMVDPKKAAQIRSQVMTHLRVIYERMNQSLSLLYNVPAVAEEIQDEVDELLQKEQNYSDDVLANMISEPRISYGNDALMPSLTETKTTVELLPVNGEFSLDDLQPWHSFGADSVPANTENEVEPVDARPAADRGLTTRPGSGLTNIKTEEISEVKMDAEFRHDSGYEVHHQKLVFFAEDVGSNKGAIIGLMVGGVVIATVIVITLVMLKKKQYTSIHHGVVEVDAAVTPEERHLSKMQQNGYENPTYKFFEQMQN

[2] = target: Amyloid-beta precursor protein (Homo sapiens) (UniProt P05067); test: Inhibition of human amyloid beta (1 to 42) assessed as reduction in fibrillisation AUC in cell-free solution at 100 uM measured every 10 mins for 48 hrs by Thioflavin T based fluorescence assay
[3] = target: Amyloid-beta precursor protein (Homo sapiens) (UniProt P05067); test: Inhibition of human amyloid beta (1 to 42) assessed as neuroprotective activity up to 2 uM of amyloid beta (1 to 42)-induced toxicity in rat PC12 cells by measuring reduction in cell viability at 100 uM incubated 15 mins prior to amyloid beta (1 to 42) addition measured after 48 hrs by MTT assay; assay type: cell-based
[4] = target: Amyloid-beta precursor protein (Homo sapiens) (UniProt P05067); test: Inhibition of human amyloid beta (1 to 42) assessed as neuroprotective activity at 2 uM of amyloid beta (1 to 42)-induced toxicity in rat PC12 cells by measuring reduction in cell viability at 10 to 50 uM incubated 15 mins prior to amyloid beta (1 to 42) addition measured after 48 hrs by MTT assay; assay type: cell-based
[5] = target: Amyloid-beta precursor protein (Homo sapiens) (UniProt P05067); test: Inhibition of human amyloid beta (1 to 42) aggregation assessed as loosely attached/thin fibrils at 100 uM after 48 hrs by transmission electron microscopic analysis
[6] = target: Amyloid-beta precursor protein (Homo sapiens) (UniProt P05067); test: Inhibition of human amyloid beta (1 to 42) assessed as neuroprotective activity at 2 uM of amyloid beta (1 to 42)-induced toxicity in rat PC12 cells by measuring reduction in cell viability at 100 uM incubated 15 mins prior to amyloid beta (1 to 42) addition measured after 48 hrs by MTT assay; assay type: cell-based
[7] = target: Amyloid-beta precursor protein (Homo sapiens) (UniProt P05067); test: Inhibition of human amyloid beta (1 to 42) assessed as neuroprotective activity at 2 uM of amyloid beta (1 to 42)-induced toxicity in rat PC12 cells by measuring reduction in cell viability incubated 15 mins prior to amyloid beta (1 to 42) addition measured after 48 hrs by MTT assay; assay type: cell-based
[8] = target: Amyloid-beta precursor protein (Homo sapiens) (UniProt P05067); test: Inhibition of human amyloid beta (1 to 42) aggregation assessed as reduction in fibril formation at 100 uM after 48 hrs by transmission electron microscopic analysis
[9] = target: Amyloid-beta precursor protein (Homo sapiens) (UniProt P05067); test: Inhibition of human amyloid beta (1 to 42) aggregation at 100 uM after 48 hrs by transmission electron microscopic analysis
[10] = target: Amyloid-beta precursor protein (Homo sapiens) (UniProt P05067); test: Inhibition of human amyloid beta (1 to 42) assessed as neuroprotective activity up to 1 uM of amyloid beta (1 to 42)-induced toxicity in rat PC12 cells by measuring reduction in cell viability at 100 uM incubated 15 mins prior to amyloid beta (1 to 42) addition measured after 48 hrs by MTT assay; assay type: cell-based
PC-12 [11] = test: Cytotoxicity against rat PC12 cells assessed as reduction in cell viability at 100 uM after 48 hrs in presence of 0.1 uM amyloid beta (1 to 42) by MTT assay; assay type: cell-based; conditions: pc-12, 48 h
[12] = target: Amyloid-beta precursor protein (Homo sapiens) (UniProt P05067); test: Inhibition of human amyloid beta (1 to 42) fibrillisation in cell-free solution at 100 uM measured up to 16 hrs by Thioflavin T based fluorescence assay
[13] = target: Amyloid-beta precursor protein (Homo sapiens) (UniProt P05067); test: Inhibition of human amyloid beta (1 to 42) aggregation assessed as increase in preponderance of fibril meshwork formation at 100 uM after 48 hrs by transmission electron microscopic analysis
PC-12 [14] = test: Cytotoxicity against rat PC12 cells assessed as reduction in cell viability at 100 uM after 48 hrs in presence of up to 2 uM amyloid beta (1 to 42) by MTT assay; assay type: cell-based; conditions: pc-12, 48 h
PC-12 [15] = test: Cytotoxicity against rat PC12 cells assessed as reduction in cell viability at 100 uM after 48 hrs by MTT assay; assay type: cell-based; conditions: pc-12, 48 h
[16] = target: Amyloid-beta precursor protein (Homo sapiens) (UniProt P05067); test: Inhibition of human amyloid beta (1 to 42) assessed as neuroprotective activity against amyloid beta (1 to 42)-induced toxicity in rat PC12 cells by measuring reduction in cell viability at 50 to 100 uM incubated 15 mins prior to amyloid beta (1 to 42) addition measured after 48 hrs by MTT assay; assay type: cell-based
[17] = target: Amyloid-beta precursor protein (Homo sapiens) (UniProt P05067); test: Inhibition of human amyloid beta (1 to 42) assessed as neuroprotective activity against amyloid beta (1 to 42)-induced toxicity in rat PC12 cells by measuring reduction in cell viability at 10 uM incubated 15 mins prior to amyloid beta (1 to 42) addition measured after 48 hrs by MTT assay; assay type: cell-based

Question: Which results are given for `COc1c(-c2ccc(O)c(O)c2)oc2c(O)c(O)ccc2c1=O`?
Answer: inhibition [1]: Active; inhibition [2]: Active; inhibition [3]: Active; inhibition [4]: Active; inhibition [5]: Active; inhibition [6]: inactive

Question: `O=c1cc(-c2ccc(O)c(O)c2O)oc2ccccc12` was tested. Which inhibition [1] did it give?
Answer: Its inhibition is “Active”.

Question: And the inhibition [2]?
Answer: Its inhibition is “Active”.

Question: And the inhibition [7]?
Answer: The inhibition was “Dose-dependent effect”.

Question: What about the inhibition [3] of the same compound?
Answer: Its inhibition is “Active”.

Question: What about the inhibition [8] of the same compound?
Answer: The inhibition was “Active”.

Question: And the inhibition [9]?
Answer: The inhibition was “Active”.

Question: `COc1cc(-c2cc(=O)c3c(O)c(OC)c(O)cc3o2)ccc1O` [JACEOSIDINE] was tested. Which inhibition [2] did it give?
Answer: The inhibition was “inactive”.

Question: What about the inhibition [10] of the same compound?
Answer: Its inhibition is “inactive”.

Question: What about the Activity (PC-12 [11]) of the same compound?
Answer: Its Activity is “Toxic”.

Question: What about the inhibition [12] of the same compound?
Answer: Its inhibition is “Active”.

Question: What about the inhibition [9] of the same compound?
Answer: The inhibition was “Active”.

Question: For `COc1ccc(-c2cc(=O)c3c(OC)c(OC)c(OC)c(OC)c3o2)cc1OC` [NOBILETIN], which inhibition [13] is on record?
Answer: The inhibition was “inactive”.

Question: And the inhibition [2]?
Answer: Its inhibition is “inactive”.

Question: And the inhibition [10]?
Answer: The inhibition was “inactive”.

Question: What about the Activity (PC-12 [11]) of the same compound?
Answer: Its Activity is “Toxic”.

Question: What about the inhibition [12] of the same compound?
Answer: The inhibition was “inactive”.

Question: With `O=c1c(O)c(-c2ccc(O)c(O)c2)oc2cc(O)cc(O)c12` [QUERCETIN] as the compound, how does the Activity (PC-12 [14]) read?
Answer: Its Activity is “Non-Toxic”.

Question: What about the inhibition [1] of the same compound?
Answer: Its inhibition is “Active”.

Question: What about the Activity (PC-12 [15]) of the same compound?
Answer: Its Activity is 25%.

Question: And the inhibition [2]?
Answer: The inhibition was “Active”.

Question: And the inhibition [3]?
Answer: The inhibition was “inactive”.

Question: And the inhibition [16]?
Answer: The inhibition was “inactive”.

Question: What about the inhibition [5] of the same compound?
Answer: Its inhibition is “Active”.

Question: What about the inhibition [17] of the same compound?
Answer: Its inhibition is “Active”.
